Assay results from US5948784A, “Quinazoline derivatives” (Kyowa Hakko Kogyo Co., Ltd., priority 1994, dated 1999).

How the values were obtained:
[1] = biological target: T1, [^3 H]-Nitrobenzylthioinosine (NBI) binding, cerebral cortex homogenate (Cavia porcellus, UniProt H0V4R7); assay: Inhibitory Effect on [^3 H]-Nitrobenzylthioinosine (NBI) Binding; set-up: species or system guinea pig (male, Hartley strain); details: guinea pig cerebral cortex, 1.5 nM [^3 H]-NBI, 25° C., 30 minutes, Cheng-Prusoff
T1 construct: The cerebral cortex of a male guinea pig of Hartley strain was homogenized; from tissue; host or cells: cerebral cortex of male Hartley guinea pig (washed membrane precipitate)
T1 sequence (H0V4R7 1-461): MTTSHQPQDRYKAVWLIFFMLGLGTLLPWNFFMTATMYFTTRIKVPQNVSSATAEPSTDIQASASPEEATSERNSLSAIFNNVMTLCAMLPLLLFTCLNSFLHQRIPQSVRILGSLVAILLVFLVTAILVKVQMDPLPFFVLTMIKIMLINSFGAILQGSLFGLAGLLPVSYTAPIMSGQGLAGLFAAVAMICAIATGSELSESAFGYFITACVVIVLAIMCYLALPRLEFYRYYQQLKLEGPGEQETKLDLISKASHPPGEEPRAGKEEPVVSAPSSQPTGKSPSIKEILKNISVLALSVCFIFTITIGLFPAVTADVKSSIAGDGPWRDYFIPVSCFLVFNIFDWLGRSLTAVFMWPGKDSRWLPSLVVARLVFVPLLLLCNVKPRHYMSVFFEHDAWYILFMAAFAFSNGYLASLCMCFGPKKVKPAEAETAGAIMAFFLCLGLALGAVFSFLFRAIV
Experimental: The cerebral cortex of a male guinea pig of Hartley strain was homogenized with an ice-cooled 50 mM tris-HCl buffer (pH 7.4) in an amount of 25 times (w/v) that of the tissue. The homogenate was centrifuged (30,000×g, 4° C., 20 mins.), and the supernatant was discarded. To the precipitate was added the same amount of the buffer, followed by homogenization and then centrifugation in the same manner as above. The obtained precipitate was suspended in 20 times as much buffer as the precipitate to prepare a suspension for testing. To a DMSO solution of a test compound were added 1.5 nM of [^3 H]-NBI and 5 mg (wet basis) of the tissue homogenate, and the mixture was allowed to stand at 25° C. for 30 minutes. To the mixture was added 4 ml of an ice-cooled buffer, followed by rapid filtration with suction through a glass filter (GF/C, produced by Whatman Ltd.) or a Ready filter (produced by Beckman Co.) to stop the reaction. The filter was transferred to a scintillation vial, and after drying, Scintisol EX-H was added thereto. The radioactivity was measured with a liquid scintillation counter. The binding inhibitory activity was expressed in terms of an inhibition constant (Ki value) as calculated according to Cheng-Prusoff's formula.

[2] = system: [^3 H]-adenosine uptake in erythrocytes; assay: Inhibitory Effect on [^3 H]-Adenosine Uptake (washed erythrocytes); format: cell-based, human (healthy male adult); details: Homo sapiens; erythrocyte suspension, 1 hour preincubation at room temperature, 10 seconds uptake; read-out: [^3 H]-Adenosine Uptake Inhibition IC50
Experimental: A blood sample was obtained from a healthy adult under 40 years of age by brachial venipuncture using a syringe containing sodium citrate and subjected to centrifugation to obtain washed erythrocytes. […] Ten seconds later, 200 μl of a dilazep solution (1 mg/ml) was added to stop the reaction. […] The supernatant was removed and the erythrocyte fraction was separated. […] The concentration of the test compound which inhibits the [^3 H]-adenosineuptake by 50% (IC50) was calculated.

[3] = system: Masugi Nephritis in ddY-strain male mice; assay: Effect on Increase of Albumin Excretion in Masugi Nephritis; format: in vivo, mouse
Experimental: Mouse nephrotoxin (hereinafter referred to as NT) was prepared according to the method of Ito, et al. [The Japanese Journal of Nephrology, 23, 25-36 (1981)]. That is, glomerular basement membrane (hereinafter referred to as GBM) was isolated from mouse kidney and digested with trypsin (Sigma). The digested GBM was subjected to ultracentrifugation under cooling, and the supernatant was dialyzed against distilled water, followed by lyophilization. The lyophile product was intracutaneously injected as an antigen into four foot pads of a rabbit together with Freund's complete adjuvant (Iatron; hereinafter referred to as FCA) once a week for 4 weeks for immunization. The whole blood was drawn from the immunized rabbit, and serum was separated and inactivated at 56° C. for 30 minutes to prepare NT.
In this test, ddY-strain male mice weighing 29-36 g were used. For previous immunization, 0.25 ml of an FCA emulsion containing 0.25 mg of rabbit immunoglobulin-globulin (IgG, Sigma) was intraperitoneally injected into mice. Nephritis was induced by intravenous injection of 0.075 ml of NT through the tail vein 4 and 11 days after the previous immunization. […] The supernatant was analyzed for albumin using an autoanalyzer (Olympus). […]
The results are shown in Table 7 as the means±standard error of each group consisting of 11 mice. Statistical significance was evaluated by Student's t-test.

[4] = system: dd-strain male mice; assay: Acute Toxicity Test; format: in vivo; details: mortality seven days after administration
Experimental: A test compound was orally or intraperitoneally administered to groups of dd-strain male mice weighing 20±1 g, each group consisting of three mice. […] The MLD was >1000 mg/kg for oral administration of Compound 10 and was >100 mg/kg for intraperitoneal administration of Compound 10.

[5] = system: Diabetic Nephropathy (STZ) in ddY-strain male mice; assay: Effect on Increase of Albumin Excretion in Diabetic Nephropathy; format: in vivo, mouse; details: for Urinary Albumin Content: mean, standard error, control 333 ± 30, normal 80 ± 3
Experimental: In this test, ddY-strain male mice weighing 25-28 g were used. Diabetes was induced according to the method of Tsuchida, et al. [Jin To Toseki (Kidney and Dialysis), 31, 363-366 (1991)]. That is, streptozotocin (5 mg/ml, Sigma; hereinafter referred to as STZ) dissolved in 0.05 M citrate buffer was intravenously injected into mice through the tail vein at a dose of 10 ml/kg. On the fourth day after the STZ administration, 30 μl of blood was collected from the tail vein of the mice and the blood glucose was determined using Glutestsensor (Sanwa Kagaku). The animals were divided into three groups based on the blood glucose level. Twelve weeks after the STZ administration, each mouse was put into a metabolic cage and received oral administration of 0.5 ml/10 g of distilled water twice at an interval of 12 hours. Urine was collected for 24 hours, and after measurement of the volume, the urine was centrifuged under cooling (3000 rpm, 4° C. ) for 5 minutes. The supernatant was analyzed for albumin using an autoanalyzer (Olympus). A test compound was orally administered once a day for 11 weeks, starting on the fifth day after the STZ administration. The normal group and the control group received oral administration of a solvent (5% methyl cellulose solution). The results are shown in Table 8 as the means standard error of each group. Statistical significance was evaluated by Aspin-Welch's test for the difference between the control group and the normal group and by Steel's test for the difference between the control group and the test compound-administered group.

SMILES	Ki [1] [nM]	IC50 [2] [nM]	other results
CCOC(=O)C1CCN(c2nc(N3CCC(n4c(=O)c5cc(C)ccc5n(C)c4=O)CC3)c3cc(OC)c(OC)cc3n2)CC1 [Compound 3, 3-{1-[2-(4-Ethoxycarbonylpiperidino)-6,7-dimethoxy-4-quinazolinyl]-4-piperidinyl}-1,2,3,4-tetrahydro-1,6-dimethyl-2,4-dioxoquinazoline]	7.6	–	–
COc1cc2nc(N3CCN(C)CC3)nc(N3CCC(n4c(=O)c5cc(C)ccc5n(C)c4=O)CC3)c2cc1OC [Compound 2, 3-{1-[6,7-Dimethoxy-2-(4-methyl-1-piperazinyl)-4-quinazolinyl]-4-piperidinyl}-1,2,3,4-tetrahydro-1,6-dimethyl-2,4-dioxoquinazoline]	–	64	–
CCOc1cc2nc(N3CCOCC3)nc(N3CCC(n4c(=O)c5cc(C)ccc5n(C)c4=O)CC3)c2cc1OCC.Cl [Compound 10, 3-[1-(6,7-Diethoxy-2-morpholino-4-quinazolinyl)-4-piperidinyl]-1,2,3,4-tetrahydro-1,6-dimethyl-2,4-dioxoquinazoline hydrochloride]	2	97	Urinary Albumin Content ([3]; 1 mg/kg oral once a day, mean ± standard error, 11 mice, control 134 ± 9, normal 85 ± 5, marked **): 96 ± 7 mg/kg/24 hr; effect on increase of urinary albumin in nephritis (in words) ([3]; Masugi nephritis, mice): inhibits the increase of urinary albumin in nephritis; minimum lethal dose (MLD), intraperitoneal ([4]; intraperitoneal): > 100 mg/kg; minimum lethal dose (MLD), oral ([4]; oral): > 1000 mg/kg; Urinary Albumin Content ([5]; 1 mg/kg oral once a day for 11 weeks, 10 animals, * less than 5% vs control): 244 ± 16 mg/kg/24 hr; Urinary Albumin Content ([5]; 10 mg/kg oral once a day for 11 weeks, 9 animals, ** less than 1% vs control): 200 ± 13 mg/kg/24 hr; effect on increase of urinary albumin in diabetic nephropathy (in words) ([5]; STZ diabetic nephropathy, mice): inhibits the increase of urinary albumin in diabetic nephropathy
COc1cc2nc(N3CCC(C(=O)O)CC3)nc(N3CCC(n4c(=O)c5cc(C)ccc5n(C)c4=O)CC3)c2cc1OC [Compound 4, 3-{1-[2-(4-Carboxypiperidino)-6,7-dimethoxy-4-quinazolinyl]-4-piperidinyl}-1,2,3,4-tetrahydro-1,6-dimethyl-2,4-dioxoquinazoline]	–	72	–
COc1cc2nc(N3CCOCC3)nc(N3CCC(n4c(=O)c5cc(C)ccc5n(C)c4=O)CC3)c2cc1OC [Compound 1, 3-[1-(6,7-Dimethoxy-2-morpholino-4-quinazolinyl)-4-piperidinyl]-1,2,3,4-tetrahydro-1,6-dimethyl-2,4-dioxoquinazoline]	2	35	–
COc1cc2nc(N(C)C)nc(N3CCC(n4c(=O)c5cc(C)ccc5n(C)c4=O)CC3)c2cc1OC [Compound 5, 3-[1-(2-Dimethylamino-6,7-dimethoxy-4-quinazolinyl)-4-piperidinyl]-1,2,3,4-tetrahydro-1,6-dimethyl-2,4-dioxoquinazoline]	2.6	–	–

More lines, main results first:

Ki [1] [nM]	IC50 [2] [nM]	SMILES	other results
1.5	29	COc1cc2nc(N(CCO)CCO)nc(N3CCC(n4c(=O)c5cc(C)ccc5n(C)c4=O)CC3)c2cc1OC [Compound 6, 3-{1-[2-Bis(2-hydroxyethyl)amino-6,7-dimethoxy-4-quinazolinyl]-4-piperidinyl}-1,2,3,4-tetrahydro-1,6-dimethyl-2,4-dioxoquinazoline]	–
3.8	62	COc1cc2nc(N(C)CCN(C)C)nc(N3CCC(n4c(=O)c5cc(C)ccc5n(C)c4=O)CC3)c2cc1OC [Compound 7, 3-{1-{2-[N-(2-Dimethylaminoethyl)-N-methylamino]-6,7-dimethoxy-4-quinazolinyl}-4-piperidinyl}-1,2,3,4-tetrahydro-1,6-dimethyl-2,4-dioxoquinazoline]	–
1.4	50	CCCNc1nc(N2CCC(n3c(=O)c4cc(C)ccc4n(C)c3=O)CC2)c2cc(OC)c(OC)cc2n1 [Compound 8, 3-[1-(6,7-Dimethoxy-2-propylamino-4-quinazolinyl)-4-piperidinyl]-1,2,3,4-tetrahydro-1,6-dimethyl-2,4-dioxoquinazoline]	–
